Measurements taken from US11957760B2, “Folate receptor targeted nanoparticle drug conjugates and uses thereof” (priority 2020, dated 2024).
Like-named read-outs stand apart in the source and are kept apart here.

Legend:
[1] = tested on: irinotecan-resistant KB cells; assay: IC50 assay in irinotecan-resistant KB cells; assay type: cell-based, human
Description: (§1) Naïve human KB cell line were purchased from ATCC and maintained in folic acid free RPMI 1640 media/10% FBS, and 1% of penicillin/streptomycin. To develop the TOP1 inhibitor resistant KB cells, the cells in flask (50-60% confluence) were repeatedly treated with increasing concentration of exatecan, topotecan, SN-38 or irinotecan for over 4 months. The starting TOP1 inhibitor treatment concentration was close to the KB cell's IC90 values. After each treatment, the cells were carefully washed with fresh RPMI 1640 media and left to proliferate for an additional 2-3 days until reaching 50-60% confluence.
(§2) Both naïve and TOP1 inhibitor resistant KB cell were cultured in folic acid-free medium (RPMI1640, ThermoFisher, GIBCO). Cells were plated in opaque 96-well plates at a density of 3×10^3 cells per well (total of 90 μL) and allowed to attach overnight. […] After exposing the TOP1 inhibitors with both types of cells for the same period of time, the cell viability was assessed using the CellTiter-Glo2.0 assay (Promega) according to manufacturer's instructions. Data for both viability and proliferation were plotted using Prism7 software (GraphPad). The resistant factor can be calculated by using the following equation:

naïve KB cells = assay: IC50 assay in naïve KB cells; assay type: cell-based; conditions: Homo sapiens; naïve (regular) KB cells
Description: as §1, §2

[2] = tested on: exatecan-resistant KB cells; assay: IC50 assay in exatecan-resistant KB cells; assay type: cell-based, human; conditions: for IC50: Homo sapiens
Description: To develop the TOP1 inhibitor resistant KB cells, the cells in flask (50-60% confluence) were repeatedly treated with increasing concentration of exatecan, topotecan, SN-38 or irinotecan for over 4 months. The starting TOP1 inhibitor treatment concentration was close to the KB cell's IC90 values.
The following day, cells were treated with selected TOP1 inhibitors (e.g., free exatecan) or NDC at suitable concentration ranges. […] The resistant factor can be calculated by using the following equation: […]

| IC50 ([1]; Homo sapiens, irinotecan-resistant KB cells) [nM] | SMILES | resistance of irinotecan-resistant versus naïve KB cells [1] [×] | IC50 (naïve KB cells) [nM] | resistance of exatecan-resistant versus naïve KB cells [2] [×] | IC50 ([2]; KB, KB cells pretreated 7× with exatecan) [nM] | IC50 ([2]; KB cells pretreated 4× with exatecan, read-out: IC50) [nM] |
| --- | --- | --- | --- | --- | --- | --- |
| 3620 | CCc1c2c(nc3ccc(OC(=O)N4CCC(N5CCCCC5)CC4)cc13)-c1cc3c(c(=O)n1C2)COC(=O)[C@]3(O)CC [irinotecan] | 5 | 668 | – | – | – |
| – | CC[C@@]1(O)C(=O)OCc2c1cc1n(c2=O)Cc2c-1nc1cc(F)c(C)c3c1c2[C@@H](N)CC3 [exatecan] | – | 2 | > 8 | 16.9 | 4 |
